Tests used:
[1] = tested on: HDAC1; design: method as in PMID 35008795; details: cited from earlier work
[2] = tested on: HDAC2; design: method as in PMID 35008795; details: cited from earlier work
[3] = tested on: HDAC3; design: method as in PMID 35008795; details: cited from earlier work
[4] = target: T1, HDAC1 (Homo sapiens, UniProt Q13547); assay: HDAC1 abundance by quantitative fluorescence western blotting in HCT116 cells; format: cell-based; details: for Dose response degradation of HDAC1: 24 h, 0.01-10 μM, two independent biological replicates; for HDAC1 abundance: at 0.1 μM and 1 μM
T1 construct: endogenous in cells; host or cells: HCT116 (ATCC CCL-247)
Method: (§1) We screened these compounds side-by side with JPS004 a VHL based HDAC1–3 targeting PROTAC and the HDAC1–3 inhibitor CI-994 as control compounds for degradation and inhibition, respectively. […] HCT116 cells were incubated for 24 hours with the compounds and HDAC1, HDAC2 and HDAC3 abundance was quantified by fluorescence western blotting. We also determined the effects on Histone 3 Lysine 56 acetylation (H3K56ac) levels as a secondary assay, for in-cell HDAC inhibition or degradation. […] Similar to our previous observations with VHL recruiting PROTACs, HDAC2 reduction was less affected. It was noteworthy that 7 also incorporated a 12 carbon alkyl linker, which has been an effective linker in our previous studies.[10],[11] Pleasingly, compounds 3–8 also had more modest effects on HDAC3 abundance compared to previously reported VHL recruiting PROTACs.[6]–[13] […] However, while surprising, it is not unprecedented as we and others have observed similar effects on histone acetylation markers with HDAC3 targeting PROTACs.[11],[13],[18]
(§2) Fig. 3 HDAC1, HDAC2, HDAC3 abundance were determined by quantitative western blotting with antibodies for HDAC1, HDAC2, HDAC3 in HCT116 cells after 24 hours. H3K56 acetylation levels were also determined by quantitative western blotting with an antibody for H3K56ac, and the fold change was compared between compounds at 10 μM, normalising treatment with inhibitor CI 994 = 1.0.
(§3) Supplementary Information: Biology
(§4) 1. Cell Culture, Compound Handling and Western Blotting Protocols
(§5) The HCT116 cell line used in this study was obtained from ATCC (CCL-247). HCT116 human colon carcinoma cells were grown in a Dulbecco’s modified Eagle medium (GIBCO, 41965-039) supplemented with 10% FBS (Sigma) and 1X glutamine/penicillin/streptomycin (GIBCO, 10378−016). Cells were incubated at 37 °C with 5% CO2. Cells were treated with compounds at indicated concentrations (0.01−10 μM). All compounds were made up to a standard solution of 10 mM in DMSO, serially diluted in DMSO, then added to fresh medium (5 mL total) to afford the concentrations stated (0.01−10 μM), with a final DMSO volume of […]
HCT116 cells were seeded into 6-well plates (4 × 10^5 cells/well) for 24 hours and then treated with DMSO or compounds at the indicated concentrations in fresh medium (5 mL total). After 24 hours treatment time, the cells were harvested and then lysed in lysis buffer (50 mM Tris-HCl, 150 mM NaCl, 0.5% NP-40, 0.5% Triton X-100) supplemented with a protease inhibitor (Sigma, P8340). The suspension was incubated on ice for 30 min, then centrifuged (18,000 rcf, 15 min, 4 °C) and the supernatant collected. Protein concentrations were quantified via Bradford Assay using Protein Assay Dye Reagent Concentrate (BIO-RAD). […] Western blots were run on NuPAGE 4−12% bis−Tris gels with 30 μg of protein or 10 μL of ac id-extracted histone loaded per lane, using NuPAGE LDS sample buffer (4X). PageRuler Plus Prestained Ladder was used for size standards. After gel electrophoresis at 140 V for 90 min, the separated proteins were transferred onto a nitrocellulose membrane at 30 V for 60 min. The membranes were probed with primary antibodies (as indicated below) for 60−90 min. Blots were developed with complimentary IRDye®-conjugated secondary antibodies, and the bands were visualized using an Odyssey infrared imaging system. Image processing and band intensity quantification were performed using Image Studio Lite.
(§6) 2. Western Blotting Results
(§7) 2.1. Western Blotting Analysis of Compounds 3-15 from Initial Screen
(§8) Figure S1. Western blotting of HDAC1/2/3 proteins in HCT116 cells treated with compounds 3-15.
(§9) (1 picture or pasted object on this page, not shown here)

[5] = target: T2, HDAC2 (Homo sapiens, UniProt Q92769); assay: HDAC2 abundance by quantitative fluorescence western blotting in HCT116 cells; format: cell-based; details: for Dose response degradation of HDAC2: 24 h, 0.01-10 μM, two independent biological replicates; for HDAC2 abundance / degradation / HDAC2 abundance: initial screen, 24 hours; for HDAC2 abundance: at 0.1 μM and 1 μM
T2 construct: endogenous in cells; host or cells: HCT116 (ATCC CCL-247)
Method: as §1, §2, §3, §4, §5
(§10) HCT116 cells were seeded into 6-well plates (4 × 10^5 cells/well) for 24 hours and then treated with DMSO or compounds at the indicated concentrations in fresh medium (5 mL total). After 24 hours treatment time, the cells were harvested and then lysed in lysis buffer (50 mM Tris-HCl, 150 mM NaCl, 0.5% NP-40, 0.5% Triton X-100) supplemented with a protease inhibitor (Sigma, P8340). The suspension was incubated on ice for 30 min, then centrifuged (18,000 rcf, 15 min, 4 °C) and the supernatant collected. Protein concentrations were quantified via Bradford Assay using Protein Assay Dye Reagent Concentrate (BIO-RAD). For histone extraction, an equal volume of 0.4 N H2SO4 was added to the pellets, and the extracts were placed at 4 °C overnight, centrifuged (18,000 rcf, 15 min, 4 °C), then the supernatant (histone extract) collected.
(§11) Western blots were run on NuPAGE 4−12% bis−Tris gels with 30 μg of protein or 10 μL of ac id-extracted histone loaded per lane, using NuPAGE LDS sample buffer (4X). PageRuler Plus Prestained Ladder was used for size standards. After gel electrophoresis at 140 V for 90 min, the separated proteins were transferred onto a nitrocellulose membrane at 30 V for 60 min. The membranes were probed with primary antibodies (as indicated below) for 60−90 min. Blots were developed with complimentary IRDye®-conjugated secondary antibodies, and the bands were visualized using an Odyssey infrared imaging system. Image processing and band intensity quantification were performed using Image Studio Lite.
as §6, §7, §8, §9

[6] = target: T3, HDAC3 (Homo sapiens, UniProt O15379); assay: HDAC3 abundance by quantitative fluorescence western blotting in HCT116 cells; format: cell-based; details: for Dose response degradation of HDAC3: 24 h, 0.01-10 μM, two independent biological replicates; for HDAC3 abundance / degradation: initial screen, 24 hours
T3 construct: endogenous in cells; host or cells: HCT116 (ATCC CCL-247)
Method: as §1, §2, §3, §4, §5, §10, §11, §6, §7, §8, §9

[7] = tested on: H3K56ac; assay: Histone 3 Lysine 56 acetylation (H3K56ac) levels by quantitative western blotting in HCT116 cells; format: cell-based, human; details: for H3K56 acetylation levels: rescreen with methylated controls (Fig. 4C); for H3K56ac levels: initial screen, HCT116 cells, 24 hours, fold change compared at 10 μM
Method: as §1, §2, §3, §4, §5, §10
as §11, with “Blots were developed with complimentary IRDye®-conjugated secondary antibodies, and the bands were visualized using an Odyssey infrared imaging system.” left out, “Lite. […]” for “Lite.”

[8] = tested on: HDAC1; design: method as in PMID 35293758; details: previous findings; cited from earlier work
[9] = tested on: HDAC2; design: method as in PMID 35293758; details: previous findings; cited from earlier work
[10] = tested on: HDAC3; design: method as in PMID 35293758; details: previous findings; cited from earlier work

T1 sequence (Q13547 whole entry): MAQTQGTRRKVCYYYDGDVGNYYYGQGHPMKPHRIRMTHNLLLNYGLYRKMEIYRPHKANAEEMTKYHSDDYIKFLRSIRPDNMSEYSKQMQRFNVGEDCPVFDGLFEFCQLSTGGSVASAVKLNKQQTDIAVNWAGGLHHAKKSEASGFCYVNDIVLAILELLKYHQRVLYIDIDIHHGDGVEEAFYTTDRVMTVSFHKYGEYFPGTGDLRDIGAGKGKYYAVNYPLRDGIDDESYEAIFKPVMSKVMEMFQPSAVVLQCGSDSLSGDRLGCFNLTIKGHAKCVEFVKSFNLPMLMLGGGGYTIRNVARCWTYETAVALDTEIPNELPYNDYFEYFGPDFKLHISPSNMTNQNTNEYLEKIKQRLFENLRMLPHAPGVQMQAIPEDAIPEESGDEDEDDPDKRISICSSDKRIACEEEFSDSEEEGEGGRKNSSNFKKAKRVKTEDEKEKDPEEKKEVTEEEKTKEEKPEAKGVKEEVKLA
T3 sequence (O15379 whole entry): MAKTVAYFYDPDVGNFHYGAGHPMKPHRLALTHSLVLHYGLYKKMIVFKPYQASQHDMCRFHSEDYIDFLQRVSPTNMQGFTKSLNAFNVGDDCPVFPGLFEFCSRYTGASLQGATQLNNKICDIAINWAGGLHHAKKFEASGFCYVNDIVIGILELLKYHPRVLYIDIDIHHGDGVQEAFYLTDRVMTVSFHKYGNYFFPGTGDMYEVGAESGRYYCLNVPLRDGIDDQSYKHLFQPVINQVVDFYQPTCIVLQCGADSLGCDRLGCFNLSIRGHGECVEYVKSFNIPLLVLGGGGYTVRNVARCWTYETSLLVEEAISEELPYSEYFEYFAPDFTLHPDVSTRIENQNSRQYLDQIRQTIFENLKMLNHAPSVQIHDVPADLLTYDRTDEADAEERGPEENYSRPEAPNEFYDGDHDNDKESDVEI
T3 sequence (Q9Y618 whole entry partner): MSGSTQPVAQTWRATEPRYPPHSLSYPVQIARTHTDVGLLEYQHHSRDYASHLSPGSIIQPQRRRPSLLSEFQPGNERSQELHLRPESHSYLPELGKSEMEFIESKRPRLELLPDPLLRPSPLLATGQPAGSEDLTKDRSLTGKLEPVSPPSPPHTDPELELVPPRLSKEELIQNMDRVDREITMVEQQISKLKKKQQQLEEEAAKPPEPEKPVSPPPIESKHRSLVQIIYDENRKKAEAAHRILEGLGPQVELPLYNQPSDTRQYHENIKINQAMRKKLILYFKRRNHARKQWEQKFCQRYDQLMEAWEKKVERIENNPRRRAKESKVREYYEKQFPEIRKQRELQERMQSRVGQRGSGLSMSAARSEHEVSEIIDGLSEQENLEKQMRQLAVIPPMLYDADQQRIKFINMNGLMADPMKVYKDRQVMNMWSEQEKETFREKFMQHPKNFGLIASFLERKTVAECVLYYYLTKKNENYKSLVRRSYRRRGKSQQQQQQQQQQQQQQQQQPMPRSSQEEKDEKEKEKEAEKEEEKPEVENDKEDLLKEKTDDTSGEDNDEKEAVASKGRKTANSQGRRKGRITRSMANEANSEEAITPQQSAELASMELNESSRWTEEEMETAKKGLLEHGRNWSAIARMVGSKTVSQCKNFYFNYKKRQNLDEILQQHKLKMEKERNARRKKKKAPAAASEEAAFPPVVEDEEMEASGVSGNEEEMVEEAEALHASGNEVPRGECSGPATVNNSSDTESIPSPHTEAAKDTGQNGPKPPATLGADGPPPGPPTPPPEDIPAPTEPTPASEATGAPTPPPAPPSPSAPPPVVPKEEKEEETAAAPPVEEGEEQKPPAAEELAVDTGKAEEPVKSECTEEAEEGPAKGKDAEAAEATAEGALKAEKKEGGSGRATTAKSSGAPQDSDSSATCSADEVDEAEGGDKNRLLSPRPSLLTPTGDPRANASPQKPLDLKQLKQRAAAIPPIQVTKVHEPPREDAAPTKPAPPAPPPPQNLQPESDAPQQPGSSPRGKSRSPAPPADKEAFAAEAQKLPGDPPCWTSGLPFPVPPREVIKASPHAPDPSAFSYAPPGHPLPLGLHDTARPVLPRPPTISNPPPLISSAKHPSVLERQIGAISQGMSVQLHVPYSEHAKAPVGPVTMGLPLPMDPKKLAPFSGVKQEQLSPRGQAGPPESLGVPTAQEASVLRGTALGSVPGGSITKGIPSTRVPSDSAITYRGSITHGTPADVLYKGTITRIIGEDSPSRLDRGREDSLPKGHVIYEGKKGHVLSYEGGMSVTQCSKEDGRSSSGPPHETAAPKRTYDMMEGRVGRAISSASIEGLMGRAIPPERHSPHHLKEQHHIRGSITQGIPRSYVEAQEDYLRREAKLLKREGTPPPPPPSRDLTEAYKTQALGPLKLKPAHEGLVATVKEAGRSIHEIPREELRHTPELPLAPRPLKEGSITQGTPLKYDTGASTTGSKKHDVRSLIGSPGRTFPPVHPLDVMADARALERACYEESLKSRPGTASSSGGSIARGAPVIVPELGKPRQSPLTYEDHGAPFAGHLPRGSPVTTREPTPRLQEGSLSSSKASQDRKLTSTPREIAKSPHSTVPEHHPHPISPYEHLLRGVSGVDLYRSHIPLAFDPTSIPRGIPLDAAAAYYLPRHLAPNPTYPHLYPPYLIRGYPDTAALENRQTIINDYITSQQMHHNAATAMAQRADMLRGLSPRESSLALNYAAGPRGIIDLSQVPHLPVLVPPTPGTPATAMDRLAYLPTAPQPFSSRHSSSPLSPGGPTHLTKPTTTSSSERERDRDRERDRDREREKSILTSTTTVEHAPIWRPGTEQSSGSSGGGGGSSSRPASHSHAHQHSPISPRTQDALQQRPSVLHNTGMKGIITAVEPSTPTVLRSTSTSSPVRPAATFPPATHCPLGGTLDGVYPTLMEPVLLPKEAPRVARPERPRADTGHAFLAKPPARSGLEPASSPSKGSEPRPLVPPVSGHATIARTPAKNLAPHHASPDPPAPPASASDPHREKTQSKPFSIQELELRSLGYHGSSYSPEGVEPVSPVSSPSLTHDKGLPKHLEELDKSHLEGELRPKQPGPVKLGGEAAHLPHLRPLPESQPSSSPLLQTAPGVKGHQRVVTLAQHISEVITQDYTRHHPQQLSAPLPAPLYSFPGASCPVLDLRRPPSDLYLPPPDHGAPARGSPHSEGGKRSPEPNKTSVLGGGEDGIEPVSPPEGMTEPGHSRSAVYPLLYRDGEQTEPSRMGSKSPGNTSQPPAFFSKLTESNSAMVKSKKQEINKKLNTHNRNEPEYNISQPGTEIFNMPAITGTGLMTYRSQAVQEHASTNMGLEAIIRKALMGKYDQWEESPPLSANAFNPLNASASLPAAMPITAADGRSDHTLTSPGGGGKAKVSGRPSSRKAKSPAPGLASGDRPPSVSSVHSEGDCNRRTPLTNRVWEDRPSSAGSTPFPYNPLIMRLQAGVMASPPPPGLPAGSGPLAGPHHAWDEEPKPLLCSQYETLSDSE
T2 sequence (Q92769 whole entry): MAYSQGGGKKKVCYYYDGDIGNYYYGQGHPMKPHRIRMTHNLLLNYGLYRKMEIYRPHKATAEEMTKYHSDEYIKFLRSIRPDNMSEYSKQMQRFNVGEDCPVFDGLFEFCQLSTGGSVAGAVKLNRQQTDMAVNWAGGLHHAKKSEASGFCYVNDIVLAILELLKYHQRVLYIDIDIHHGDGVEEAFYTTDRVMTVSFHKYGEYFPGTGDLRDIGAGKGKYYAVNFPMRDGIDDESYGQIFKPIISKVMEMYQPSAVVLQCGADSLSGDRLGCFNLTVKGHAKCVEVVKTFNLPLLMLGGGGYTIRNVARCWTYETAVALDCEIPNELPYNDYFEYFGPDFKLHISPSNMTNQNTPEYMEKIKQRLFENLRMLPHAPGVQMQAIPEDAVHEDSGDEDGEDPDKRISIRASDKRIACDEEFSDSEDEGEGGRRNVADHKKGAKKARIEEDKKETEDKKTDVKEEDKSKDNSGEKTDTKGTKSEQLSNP

SMILES: Nc1ccc(-c2ccc(F)cc2)cc1NC(=O)c1cnc(N2CCNCC2)cn1 [Compound 1]
- IC50 [1]: 0.16 µM
- IC50 [2]: 0.34 µM
- IC50 [3]: 6.7 µM

SMILES: Nc1ccccc1NC(=O)c1cnc(N2CCN(C(=O)CCC3CCN(c4cccc5c4C(=O)N(C4CCC(=O)NC4=O)C5=O)CC3)CC2)cn1 (stereo not shown) [Compound 5]
- Dose response degradation of HDAC1 [4]: dose dependent degradation
- Dose response degradation of HDAC2 [5]: dose dependent degradation
- Dose response degradation of HDAC3 [6]: a hook effect was observed
- H3K56 acetylation levels [7]: increasing H3K56ac levels

SMILES: Nc1ccccc1NC(=O)c1cnc(N2CCN(C(=O)CCCCCCCCCCCNc3cccc4c3C(=O)N(C3CCC(=O)NC3=O)C4=O)CC2)cn1 (stereo not shown) [Compound 7]
- Dose response degradation of HDAC1 [4]: clear dose dependent HDAC1 degradation
- degradation selectivity (HDAC1 over HDAC3) ([4]; 24 hours): selective degradation of HDAC1 over HDAC3
- HDAC1 degradation ([4]; initial screen, 24 hours, at 1 μM): greatest HDAC1 degradation
- Dose response degradation of HDAC3 [6]: minimal HDAC3 degradation
- H3K56ac levels [7]: did not increase H3K56ac levels
- H3K56 acetylation levels [7]: did not increase H3K56 acetylation levels

SMILES: Nc1ccccc1NC(=O)c1cnc(N2CCN(C(=O)CCCCCCCC(=O)NCCNc3cccc4c3C(=O)N(C3CCC(=O)NC3=O)C4=O)CC2)cn1 (stereo not shown) [Compound 9]
- HDAC1 abundance / degradation ([4]; initial screen, 24 hours): no effects
- HDAC2 abundance / degradation [5]: no effects
- HDAC3 abundance / degradation [6]: no effects
- H3K56ac levels [7]: increase H3K56ac levels to greater levels than DMSO controls

SMILES: Nc1ccc(-c2ccc(F)cc2)cc1NC(=O)c1cnc(N2CCN(CCCCCCNc3cccc4c3C(=O)N(C3CCC(=O)NC3=O)C4=O)CC2)cn1 (stereo not shown) [Compound 10]
- HDAC1 abundance / degradation ([4]; initial screen, 24 hours): no effects
- HDAC2 abundance / degradation [5]: no effects
- HDAC3 abundance / degradation [6]: no effects
- H3K56ac levels [7]: increase H3K56ac levels to greater levels than DMSO controls

SMILES: Nc1ccc(-c2ccc(F)cc2)cc1NC(=O)c1cnc(N2CCN(C(=O)CCCCCNc3cccc4c3C(=O)N(C3CCC(=O)NC3=O)C4=O)CC2)cn1 (stereo not shown) [Compound 11]
- HDAC1 abundance ([4]; initial screen, 24 hours): reduced
- HDAC2 abundance [5]: reduced
- HDAC3 abundance / degradation [6]: no HDAC3 degradation

SMILES: Nc1ccc(-c2ccc(F)cc2)cc1NC(=O)c1cnc(N2CCN(C(=O)CCC3CCN(c4cccc5c4C(=O)N(C4CCC(=O)NC4=O)C5=O)CC3)CC2)cn1 (stereo not shown) [Compound 12]
- Dose response degradation of HDAC1 [4]: very similar dose dependent degradation of HDAC1 and HDAC2 to 5
- degradation selectivity (HDAC1 over HDAC3) ([4]; 24 hours): selective degradation of HDAC1 over HDAC3
- HDAC1 abundance ([4]; initial screen, 24 hours): reduced
- Dose response degradation of HDAC2 [5]: very similar dose dependent degradation of HDAC1 and HDAC2 to 5
- HDAC2 abundance [5]: reduced
- Dose response degradation of HDAC3 [6]: HDAC3 degradation was abolished
- HDAC3 abundance / degradation [6]: no HDAC3 degradation

SMILES: Nc1ccc(-c2ccc(F)cc2)cc1NC(=O)c1cnc(N2CCN(C(=O)CCCCCCCCCCCNc3cccc4c3C(=O)N(C3CCC(=O)NC3=O)C4=O)CC2)cn1 (stereo not shown) [Compound 14]
- HDAC1 abundance / degradation ([4]; initial screen, 24 hours): less effective at HDAC1 degradation compared to 11 and 12

SMILES: Nc1ccc(-c2ccc(F)cc2)cc1NC(=O)c1cnc(N2CCN(C(=O)CCCCCCCC(=O)N3CCN(c4cccc5c4C(=O)N(C4CCC(=O)NC4=O)C5=O)CC3)CC2)cn1 (stereo not shown) [Compound 15]
- HDAC1 abundance / degradation ([4]; initial screen, 24 hours): less effective at HDAC1 degradation compared to 11 and 12

SMILES: Cc1ncsc1-c1ccc(CNC(=O)[C@@H]2C[C@@H](O)CN2C(=O)[C@@H](NC(=O)CCCCCCCCCCC(=O)Nc2ccc(C(=O)Nc3ccccc3N)cc2)C(C)(C)C)cc1 [JPS004]
- HDAC1 degradation [8]: degrade
- HDAC2 degradation [9]: degrade
- HDAC3 degradation [10]: HDAC3 degradation is compromised at concentrations >1 μM due to the hook effect

SMILES: Cc1ncsc1-c1ccc(CNC(=O)[C@@H]2C[C@@H](O)CN2C(=O)[C@@H](NC(=O)COCCCCCCCCCOCC(=O)Nc2ccc(C(=O)Nc3ccccc3N)cc2)C(C)(C)C)cc1 [JPS016]
- HDAC1 degradation [8]: degrade
- HDAC2 degradation [9]: degrade
- HDAC3 degradation [10]: hook effect for HDAC3

SMILES: Cc1ncsc1-c1ccc(CNC(=O)[C@@H]2C[C@@H](O)CN2C(=O)[C@@H](NC(=O)C2(F)CC2)C(C)(C)C)c(OCCCCCCCCCCCC(=O)Nc2ccc(C(=O)Nc3ccccc3N)cc2)c1 [JPS036]
- HDAC3 degradation selectivity over HDAC1/2 [10]: can enhance HDAC3 degradation selectivity over HDAC1/2
